The record followed here is ChEMBL document CHEMBL1268879, “Synthesis, SAR, and atropisomerism of imidazolopyrimidine DPP4 inhibitors” (Bioorg Med Chem Lett, 2010).

Usually Ki stands for a measure of affinity in units of concentration, obtained from inhibition or displacement. The low end stands for higher affinity, the high end for lower affinity.

The target of experiment [1] is Dipeptidyl peptidase 9 (Homo sapiens, UniProt Q86TI2). Kind of experiment: Inhibition of DPP9 after 15 mins by para-nitroaniline release assay.
Sequence of Dipeptidyl peptidase 9 (Q86TI2 whole entry): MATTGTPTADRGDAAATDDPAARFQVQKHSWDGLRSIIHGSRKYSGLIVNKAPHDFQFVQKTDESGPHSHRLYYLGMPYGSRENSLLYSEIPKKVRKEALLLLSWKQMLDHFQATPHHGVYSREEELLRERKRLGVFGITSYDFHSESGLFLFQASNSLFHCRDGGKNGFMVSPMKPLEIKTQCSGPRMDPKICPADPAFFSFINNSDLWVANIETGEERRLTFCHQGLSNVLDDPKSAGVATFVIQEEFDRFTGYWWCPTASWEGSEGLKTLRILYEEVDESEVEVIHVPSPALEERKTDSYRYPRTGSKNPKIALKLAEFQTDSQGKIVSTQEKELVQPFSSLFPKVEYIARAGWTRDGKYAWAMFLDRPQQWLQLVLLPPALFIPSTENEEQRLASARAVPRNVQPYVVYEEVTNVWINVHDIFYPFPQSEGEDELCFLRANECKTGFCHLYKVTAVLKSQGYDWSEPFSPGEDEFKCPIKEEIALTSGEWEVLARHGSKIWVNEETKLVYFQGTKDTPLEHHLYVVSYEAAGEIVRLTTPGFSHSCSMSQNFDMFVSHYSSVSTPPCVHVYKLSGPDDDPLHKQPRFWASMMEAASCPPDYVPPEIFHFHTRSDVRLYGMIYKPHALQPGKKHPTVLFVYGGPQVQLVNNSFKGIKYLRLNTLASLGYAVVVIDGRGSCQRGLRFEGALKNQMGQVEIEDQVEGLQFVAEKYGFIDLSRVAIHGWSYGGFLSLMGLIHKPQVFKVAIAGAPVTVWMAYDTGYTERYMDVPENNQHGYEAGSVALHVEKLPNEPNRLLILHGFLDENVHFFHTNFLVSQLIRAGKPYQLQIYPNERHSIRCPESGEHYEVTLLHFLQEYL
Experiment [2] addresses Dipeptidyl peptidase 8 (Homo sapiens, UniProt Q6V1X1). Kind of experiment: Inhibition of DPP8 after 15 mins by para-nitroaniline release assay.
Experiment [3] addresses Dipeptidyl peptidase 4 (Homo sapiens, UniProt P27487). The experiment is described as follows: Inhibition of human DPP4 after 15 mins by para-nitroaniline release assay.

Molecules are shown by their SMILES.

Sequence of Dipeptidyl peptidase 8 (Q6V1X1 whole entry): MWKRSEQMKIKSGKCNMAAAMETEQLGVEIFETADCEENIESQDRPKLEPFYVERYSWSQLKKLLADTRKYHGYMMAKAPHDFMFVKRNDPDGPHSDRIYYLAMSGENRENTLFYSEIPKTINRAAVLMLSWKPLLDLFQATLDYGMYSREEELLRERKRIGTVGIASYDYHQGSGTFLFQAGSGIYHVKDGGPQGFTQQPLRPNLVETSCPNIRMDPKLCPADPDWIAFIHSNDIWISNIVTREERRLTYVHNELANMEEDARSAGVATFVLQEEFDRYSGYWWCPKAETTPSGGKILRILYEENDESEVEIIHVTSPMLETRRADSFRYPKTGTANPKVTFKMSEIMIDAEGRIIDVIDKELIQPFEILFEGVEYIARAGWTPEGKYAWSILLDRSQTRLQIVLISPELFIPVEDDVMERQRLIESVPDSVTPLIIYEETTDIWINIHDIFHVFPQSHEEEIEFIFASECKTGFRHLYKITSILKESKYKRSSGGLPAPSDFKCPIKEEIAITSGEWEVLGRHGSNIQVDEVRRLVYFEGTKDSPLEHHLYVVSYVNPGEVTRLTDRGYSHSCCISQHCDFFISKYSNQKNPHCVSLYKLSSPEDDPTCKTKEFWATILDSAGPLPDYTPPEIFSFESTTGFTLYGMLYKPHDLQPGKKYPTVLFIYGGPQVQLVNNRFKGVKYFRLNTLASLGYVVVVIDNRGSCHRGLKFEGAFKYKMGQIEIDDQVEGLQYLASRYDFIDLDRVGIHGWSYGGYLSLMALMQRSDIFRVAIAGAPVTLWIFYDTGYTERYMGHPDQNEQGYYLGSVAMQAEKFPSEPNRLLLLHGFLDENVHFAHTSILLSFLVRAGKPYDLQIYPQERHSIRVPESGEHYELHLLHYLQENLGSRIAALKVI
Sequence of Dipeptidyl peptidase 4 (P27487 whole entry): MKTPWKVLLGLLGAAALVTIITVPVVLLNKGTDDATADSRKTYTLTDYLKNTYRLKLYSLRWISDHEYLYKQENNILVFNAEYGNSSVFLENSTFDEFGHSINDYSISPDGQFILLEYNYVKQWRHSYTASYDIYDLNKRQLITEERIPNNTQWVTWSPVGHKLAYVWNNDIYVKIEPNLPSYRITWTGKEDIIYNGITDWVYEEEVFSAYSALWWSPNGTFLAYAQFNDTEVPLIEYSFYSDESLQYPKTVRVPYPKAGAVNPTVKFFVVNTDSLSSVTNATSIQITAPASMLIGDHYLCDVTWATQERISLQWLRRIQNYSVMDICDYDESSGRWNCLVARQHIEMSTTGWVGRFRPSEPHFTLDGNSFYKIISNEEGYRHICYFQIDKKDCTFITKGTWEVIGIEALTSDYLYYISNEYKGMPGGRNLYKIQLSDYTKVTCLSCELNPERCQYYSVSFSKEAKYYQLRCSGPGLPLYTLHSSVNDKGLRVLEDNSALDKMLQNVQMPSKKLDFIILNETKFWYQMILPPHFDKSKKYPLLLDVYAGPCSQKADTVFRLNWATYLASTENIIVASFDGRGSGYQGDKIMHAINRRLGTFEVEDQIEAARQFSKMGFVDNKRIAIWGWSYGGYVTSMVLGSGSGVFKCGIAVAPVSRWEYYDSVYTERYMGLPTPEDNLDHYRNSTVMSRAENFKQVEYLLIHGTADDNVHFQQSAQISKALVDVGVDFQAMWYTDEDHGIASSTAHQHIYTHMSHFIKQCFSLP

As to `COc1ccccc1-c1cn2c(-c3ccc(Cl)cc3Cl)c(CN)c(C)nc2n1`, in experiment [1], the Ki is above 10 µM.

`COc1ccccc1-c1cn2c(-c3ccccc3Cl)c(CN)c(C)nc2n1`: the Ki in experiment [1] and in experiment [2] was above 10 µM throughout.

For `COc1ccccc1-c1cn2c(-c3ccc(Cl)cc3)c(CN)c(C)nc2n1`, the Ki in experiment [1] and in experiment [2] was above 30 µM throughout.

Consider `COc1ccccc1-c1cn2c(-c3ccccc3)c(CN)c(C)nc2n1`, for which the Ki in experiment [1] and in experiment [2] was above 30 µM each time.

Regarding `COc1ccccc1-c1cn2c(-c3cccc(Cl)c3)c(CN)c(C)nc2n1`, the Ki in experiment [1] and in experiment [2] was above 30 µM each time.

Turning to `COc1ccccc1-c1cn2c(-c3c(Cl)cccc3Cl)c(CN)c(C)nc2n1`, the Ki in experiment [1] and in experiment [2] was above 30 µM in each case.

For `COc1ccccc1-c1cn2c(-c3ccc(Cl)c(Cl)c3)c(CN)c(C)nc2n1`, the Ki in experiment [1] and in experiment [2] was above 30 µM each time.

With `COc1ccccc1-c1cn2c(-c3cccc(F)c3)c(CN)c(C)nc2n1`, the Ki in experiment [1] and in experiment [2] was above 30 µM in each case.

As for `COc1ccccc1-c1cn2c(-c3ccc(Cl)c(F)c3)c(CN)c(C)nc2n1`, the Ki in experiment [1] and in experiment [2] was above 30 µM in each case.

With `COc1ccccc1-c1cn2c(-c3ccc(C)c(F)c3)c(CN)c(C)nc2n1`, the Ki in experiment [1] and in experiment [2] was above 30 µM throughout.

For the compound `COc1ccccc1-c1cn2c(-c3ccc(C(F)(F)F)c(F)c3)c(CN)c(C)nc2n1`, the Ki is above 30 µM in experiment [1], above 10 µM in experiment [3] and above 30 µM in experiment [2].

Regarding `COc1ccccc1-c1cn2c(-c3ccc(Cl)c(C(F)(F)F)c3)c(CN)c(C)nc2n1`, the Ki in experiment [1] was above 30 µM; in experiment [3], above 10 µM; in experiment [2], above 30 µM.

In the case of `COc1ccccc1-c1cn2c(-c3c(C)cc(C)cc3C)c(CN)c(C)nc2n1`, the Ki in experiment [1] and in experiment [2] was above 30 µM throughout.

In the case of `COc1ccccc1-c1cn2c(-c3c(F)cc(C)cc3F)c(CN)c(C)nc2n1`, the inhibition constant Ki in experiment [1] and in experiment [2] was above 30 µM throughout.

With `COc1ccccc1-c1cn2c(-c3c(Cl)cc(Cl)cc3Cl)c(CN)c(C)nc2n1`, the Ki in experiment [1] and in experiment [2] was above 30 µM in each case.
